Laboratory results reported in ChEMBL document CHEMBL1148103, “Antifungal steroidal glycosides from the patagonian starfish anasteriasminuta: structure-activity correlations” (2002).
Active and inactive are the calls of the source. The rule behind the calls is not given here.

Tests used:
Cladosporium cucumerinum [1] = test: Antifungal activity against Cladosporium cucumerinum after 2 to 3 days by bioautographic assay; type: functional, organism-based
Cladosporium cucumerinum [2] = test: Antifungal activity against Cladosporium cucumerinum at 10 ug/spot after 2 to 3 days by bioautographic assay; type: functional

Compound	Activity (Cladosporium cucumerinum [1])	inhibition zone (IZ) (Cladosporium cucumerinum [2])
CC(C)CC(=O)C[C@@](C)(O)[C@H]1CC[C@H]2[C@@H]3C[C@H](O[C@@H]4O[C@H](C)[C@@H](O)[C@H](O[C@@H]5OC[C@@H](O)[C@H](O)[C@H]5O[C@@H]5O[C@H](C)[C@@H](O)[C@H](O)[C@H]5O)[C@H]4O)[C@H]4C[C@@H](OS(=O)(=O)O)CC[C@]4(C)C3=CC[C@@]21C	inactive	–
CC(C)CC(=O)C[C@@H](C)[C@H]1CC[C@H]2[C@@H]3C[C@H](O[C@@H]4O[C@H](C)[C@@H](O)[C@H](O[C@@H]5OC[C@@H](O[C@@H]6O[C@H](CO)[C@H](O)[C@H](O)[C@H]6O[C@@H]6O[C@H](C)[C@H](O[C@@H]7O[C@H](CO)[C@H](O)[C@H](O)[C@H]7O)[C@H](O)[C@H]6O)[C@H](O)[C@H]5O[C@@H]5O[C@H](C)[C@@H](O)[C@H](O)[C@H]5O)[C@H]4O)[C@H]4C[C@@H](OS(=O)(=O)O)CC[C@]4(C)C3=CC[C@]12C	Dose-dependent effect	–
CCCCNC(=O)n1c(NC(=O)OC)nc2ccccc21 [BENOMYL]	–	20 mm
CC(=O)[C@H]1CC[C@H]2[C@@H]3C[C@H](O[C@@H]4O[C@H](C)[C@@H](O)[C@H](O[C@@H]5OC[C@@H](O[C@@H]6O[C@H](CO)[C@H](O)[C@H](O)[C@H]6O[C@@H]6O[C@H](C)[C@H](O[C@@H]7O[C@H](CO)[C@H](O)[C@H](O)[C@H]7O)[C@H](O)[C@H]6O)[C@H](O)[C@H]5O[C@@H]5O[C@H](C)[C@@H](O)[C@H](O)[C@H]5O)[C@H]4O)[C@H]4C[C@@H](OS(=O)(=O)O)CC[C@]4(C)C3=CC[C@]12C	inactive	–
CC(C)CC(=O)C[C@@](C)(O)[C@H]1CC[C@H]2[C@@H]3C[C@H](O[C@@H]4O[C@H](C)[C@@H](O)[C@H](O[C@@H]5OC[C@@H](O[C@@H]6O[C@H](CO)[C@H](O)[C@H](O)[C@H]6O[C@@H]6O[C@H](C)[C@H](O[C@@H]7O[C@H](CO)[C@H](O)[C@H](O)[C@H]7O)[C@H](O)[C@H]6O)[C@H](O)[C@H]5O[C@@H]5O[C@H](C)[C@@H](O)[C@H](O)[C@H]5O)[C@H]4O)[C@H]4C[C@@H](OS(=O)(=O)O)CC[C@]4(C)C3=CC[C@@]21C	Dose-dependent effect	–
CC(C)CC(=O)C[C@@](C)(O)[C@H]1CC[C@H]2[C@@H]3C[C@H](O[C@@H]4O[C@H](C)[C@@H](O)[C@H](O[C@@H]5OC[C@@H](O[C@@H]6O[C@H](CO)[C@H](O)[C@H](O)[C@H]6O[C@@H]6O[C@H](C)[C@H](O)[C@H](O)[C@H]6O)[C@H](O)[C@H]5O[C@@H]5O[C@H](C)[C@@H](O)[C@H](O)[C@H]5O)[C@H]4O)[C@H]4C[C@@H](OS(=O)(=O)O)CC[C@]4(C)C3=CC[C@@]21C	Dose-dependent effect	–
